According to US20260306527A1, “PRMT INHIBITOR COMPOUNDS AND THE USES THEREOF” (Purdue Research Foundation, priority 2023, published 2026):

Legend:
[1] = molecular target: PRMT6 (Homo sapiens, UniProt Q96LA8); experiment: radioactive assay (Reaction Biology Corp.), inhibition of PRMT6; assay type: biochemical
Method: Next, the inhibition activity of the library was investigated for five PRMT members from type I PRMTs.
The PRMT 4, 6 and 8 methylation assays were performed by Reaction Biology corp.

[2] = molecular target: PRMT8 (Homo sapiens, UniProt Q9NR22); experiment: selectivity of YD1113/YD1290 on PRMT panel, PRMT8; assay type: biochemical; details: 10 μM; PRMT panel
Method: The selectivity of compounds YD1113 and YD1290 on PRMTs were performed by Reaction Biology Corp.
Next, the selectivity of YD1113 was investigated on a panel of PRMTs at 10 μM.
After validating the benzyl urea moiety as an unconventional homocysteine mimic of SAH for PRMTs, it was hypothesized that incorporating the benzyl urea moiety into the original pan PRMT inhibitor II757 would build a potent bisubstrate inhibitor. […] To enable a stable tri-substitution, the sulfur atom with a nitrogen atom was replaced. YD1290 was synthesized following the reported methods 9, 15 and tested in a radioactivity assay for PRMTs (FIG. 6b).

PRMT6, sequence (Q96LA8 whole entry, species assumed): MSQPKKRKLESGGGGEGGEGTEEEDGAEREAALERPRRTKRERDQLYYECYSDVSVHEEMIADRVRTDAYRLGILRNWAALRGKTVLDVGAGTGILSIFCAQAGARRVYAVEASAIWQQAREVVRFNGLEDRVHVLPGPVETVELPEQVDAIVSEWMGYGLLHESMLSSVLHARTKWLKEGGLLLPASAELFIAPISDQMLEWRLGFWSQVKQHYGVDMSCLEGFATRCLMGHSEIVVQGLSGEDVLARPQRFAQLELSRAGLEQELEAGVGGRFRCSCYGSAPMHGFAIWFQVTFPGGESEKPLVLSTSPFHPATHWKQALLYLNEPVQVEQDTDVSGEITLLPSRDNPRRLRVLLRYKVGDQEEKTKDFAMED
PRMT8, sequence (Q9NR22 whole entry, species assumed): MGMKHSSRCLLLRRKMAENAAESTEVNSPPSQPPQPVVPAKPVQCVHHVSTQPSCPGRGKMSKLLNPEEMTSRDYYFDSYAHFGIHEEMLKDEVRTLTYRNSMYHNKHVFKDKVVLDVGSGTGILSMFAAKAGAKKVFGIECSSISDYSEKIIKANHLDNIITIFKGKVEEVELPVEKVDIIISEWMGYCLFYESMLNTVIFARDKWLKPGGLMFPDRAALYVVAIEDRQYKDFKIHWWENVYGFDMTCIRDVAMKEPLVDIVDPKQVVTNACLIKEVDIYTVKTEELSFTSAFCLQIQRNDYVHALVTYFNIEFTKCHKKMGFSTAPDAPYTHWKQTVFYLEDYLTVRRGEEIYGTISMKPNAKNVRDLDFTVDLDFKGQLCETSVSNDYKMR

inhibition at 10 µM [1]: 89% | inhibition at 10 µM [2]: < 35%
Structure (SMILES): Nc1ncnc2c1ncn2[C@@H]1O[C@H](CSCCNC(=O)NCc2ccccc2)[C@@H](O)[C@H]1O [Compound 7a, 1-(2-((((2S,3S,4R,5R)-5-(6-amino-9H-purin-9-yl)-3,4-dihydroxytetrahydrofuran-2-yl)methyl)thio)ethyl)-3-benzylurea]
